Patent US11969408B2, “Method for improving mitophagy in subjects” (Amazentis SA, priority 2017, dated 2024)

Assays:
Assay type in all cases: in vivo, human
[1] = Plasma pharmacokinetics after single oral dose (clinical study Part A)
Procedure: Part A: The study was a double-blind, randomized, single ascending doses, study in 24 healthy elderly male and female volunteers. Each subject was randomized for two subsequent doses in three cohorts. Part A: Single oral dose administration on D1 of each period according to the randomisation. The administration took place around 8:00 am with around 200 mL tap water, in sitting position, and under fasting conditions. Cohort 1 (8 subjects): 250 mg urolithin A (6 subjects) or placebo (2 subjects) capsule soft gel formulation then 2000 mg urolithin A or placebo capsule soft gel formulation. Cohort 3 (8 subjects): 1000 mg urolithin A (6 subjects) or placebo (2 subjects) capsule soft gel formulation. After single dosing: Cmax, tmax, AUC0-t, AUC0-∞, t1/2 From the plasma concentration-time data, the following pharmacokinetic parameters will be determined, as data permit using non-compartmental methods: maximum observed plasma concentration (Cmax) (ng/mL), time at which maximum observed plasma concentration (tmax) (h), area under the plasma concentration-time curve AUC(0-24h) (ng/mL*h) and AUC(0-∞) (ng/mL*h), and apparent terminal phase half-life (t1/2) (h). Blood sampling was performed for urolithin A concentration measurements at the exact timepoints with an authorised time window described in the table below: At each time point indicated in the table, a 6 mL blood sample was drawn into K2-EDTA coated tube. The blood samples were gently inverted a few times for complete mixing with the anticoagulant. The exact time of sample collection was recorded on the eCRF. Within 30 minutes following blood collection, each blood sample was centrifuged at 1500 g for 10 minutes at 4° C. From the plasma concentration-time data, the following pharmacokinetic parameters were determined, as data permit using non-compartmental methods: maximum observed plasma concentration (Cmax), time at which maximum observed plasma concentration (tmax), area under the plasma concentration-time curve AUC(0-24h) and AUC(0-∞), and apparent terminal phase half-life (t1/2).

[2] = system: genes associated with autophagy and mitophagy, mitochondrial biogenesis and dynamics, and fatty acid oxidation in skeletal muscle biopsies; test: rtPCR analysis of gene expression levels in skeletal muscle biopsies
Procedure: Muscle biopsies were collected before the meal from the vastus lateralis muscle of the right leg in order to perform ex vivo measurements. Muscle biopsies were collected on Day −1 and Day 28 at pre-dose under fasted state using the Bergström biopsy needle technique. The minimal amount of each muscle tissue sample was approximately 50 mg. One third of the tissue was used for gene expression (≈50 mg), and was further divided into two equal portions: one portion for RNA analysis (≈25 mg) and one portion for DNA analysis (≈25 mg), both in a Safe-lock Tubes 2.0 ml, Eppendorf (part no. 0030.120.094). Muscle tissue was snap frozen using liquid nitrogen immediately after collection and further, long term storage will be in a −80° C. freezer. The mRNA was analysed by microarray. Quantification of mtDNA over nuclear DNA provided another measure of mitochondrial abundance. The shipment was done in dry ice by specialized carrier. Temperatures were monitored using data logger during all transport. The method used has been validated according to good clinical laboratory practices (GCLP) and ICH guideline Q2(R1) (Validation of analytical procedures) by the corresponding service provider. Every sample was analysed in at least technical duplicates for housekeeping and target genes. A Ct value (threshold cycle), corresponding to the cycle at which the fluorescence signal reaches the amplification phase, was determined for every technical replicate and gene. The method of the 2^−ΔΔCt (Livak, K., J., and Schmittgen, T. D., Methods, 2001) was then applied to determine the relative expression of each target gene. rtPCR analysis was carried out on skeletal muscle biopsies of human subjects administered urolithin A or placebo daily for 28 days to determine the expression levels of specific genes associated with autophagy and mitophagy (LAMP2, ULK1, PIK3C3, MAP1LC3B, SQSTM1, PARK2), mitochondrial biogenesis and dynamics (SIRT1, PPARGC1A, PPARA, ESRRA, MFN1, MFN2, OPA1), and fatty acid oxidation (CPT1B, FABP3). FIG. 6 provides bar graphs showing the fold-change in gene expression levels from day −1 to day 28 for each gene for patients administered 250 mg/day or 1000 mg/day urolithin A, over placebo. The bar graphs represent gene expression data, expressed as a percentage of change over placebo, i.e. a value of 0% means that there is no difference between the dose and the placebo group while a value of 100% means that there is an increase in 100% over placebo value.

plasma acylcarnitines = test: Plasma metabolomics: acylcarnitine plasma levels
Procedure: Blood sampling was performed for analysis on plasma at the exact time-points described in the table below: Blood handling procedures: at each time point indicated in the table, a 6 mL blood sample was drawn into K2-EDTA coated tube. The blood samples were gently inverted a few times for complete mixing with the anticoagulant. The exact time of sample collection was recorded on the eCRF. Within 30 minutes following blood collection, each blood sample was centrifuged at 1500 g for 10 minutes at 4° C. 30 minutes after the centrifugation, the top layer of human plasma was transferred into 2 pre-labelled polypropylene tubes, containing approximately 1500 μL of plasma. Blood cells were not transferred. All sample tubes were clearly and appropriately labelled. Tubes were capped immediately from each time point and the plasma was be frozen in an upright position at approximately −80° C. for storage. […] Proprietary software was used to match ions to an in-house library of standards for metabolite identification and for metabolite quantitation by peak area integration. A total of 781 metabolites were quantified. […] The grey line in FIG. 11 corresponds to a fold change of 1, i.e. absence of effect. *P<0.05 correspond to a significant effect from D-1 (pre-dose) to D28, calculated after a repeated measures ANOVA. […]

[3] = 1000 mg/day for 28 days, over placebo, P<0.05 Dunnett post-hoc

O=c1oc2cc(O)ccc2c2ccc(O)cc12 [Urolithin A]
plasma levels of urolithin A per mg dosed (dose-normalised Cmax and AUC) ([1]; 1000 mg dosage compared with 2000 mg dosage, single oral dose): higher plasma levels
Cmax ([1]; both sexes, human, plasma, single oral dose 1000 mg urolithin A, healthy elderly subjects): 1.92 ng/mL
AUC ([1]; both sexes, human, plasma, single oral dose 1000 mg urolithin A, healthy elderly subjects, read-out: AUC out to 36 hours): 15.8 ng·h/mL
pharmacokinetics (Cmax and AUC) at 1000 mg compared with 2000 mg ([1]; oral administration, 1000 mg vs 2000 mg dosage): higher Cmax and AUC
Ulk1 gene expression change ([2]; 1000 mg vs placebo, ANOVA p=0.0524, Dunnett p=0.0180): close to significant
Ppargc1a gene expression change ([2]; 1000 mg vs placebo, ANOVA p=0.1026, Dunnett p=0.0673): close to significant
Cpt1b gene expression change ([2]; 1000 mg vs placebo, ANOVA p=0.1362, Dunnett p=0.0805): close to significant
Park2 gene expression change ([2]; 1000 mg vs placebo, ANOVA p=0.2504, Dunnett p=0.1500): close to significant
expression of genes associated with autophagy, mitochondrial function, and/or fatty acid oxidation ([2]; 1000 mg/day for 28 days, day 28 vs day −1, over placebo): upregulation
FABP3 gene expression (fatty acid oxidation-related) [2, 3]: significant upregulation
LAMP2 gene expression (autophagy/mitophagy-related) [2, 3]: significant upregulation
carnitine levels (plasma acylcarnitines; 28 days treatment at 1000 mg): did not change
plasma short chain up to long chain acylcarnitines (plasma acylcarnitines; after 28 days treatment at 1000 mg, day −1 to day 28): overall decrease
